Results on 20 molecules are retold here after patent US20200247800A1, “SUBSTITUTED BICYCLIC HETEROCYCLIC COMPOUNDS AS NADPH OXIDASE INHIBITORS” (Glenmark Pharmaceuticals S.A., priority 2017, published 2020).

For orientation: inhibition means the relative decrease from the control value, in per cent. Broadly, the IC50 is the concentration that inhibits the measured activity by half.

The target of this assay is T1, human NOX4 (Homo sapiens, UniProt Q9NPH5).
T1 construct: expressed in transfected cells; membrane fraction used
T1 sequence (Q9NPH5 1-578): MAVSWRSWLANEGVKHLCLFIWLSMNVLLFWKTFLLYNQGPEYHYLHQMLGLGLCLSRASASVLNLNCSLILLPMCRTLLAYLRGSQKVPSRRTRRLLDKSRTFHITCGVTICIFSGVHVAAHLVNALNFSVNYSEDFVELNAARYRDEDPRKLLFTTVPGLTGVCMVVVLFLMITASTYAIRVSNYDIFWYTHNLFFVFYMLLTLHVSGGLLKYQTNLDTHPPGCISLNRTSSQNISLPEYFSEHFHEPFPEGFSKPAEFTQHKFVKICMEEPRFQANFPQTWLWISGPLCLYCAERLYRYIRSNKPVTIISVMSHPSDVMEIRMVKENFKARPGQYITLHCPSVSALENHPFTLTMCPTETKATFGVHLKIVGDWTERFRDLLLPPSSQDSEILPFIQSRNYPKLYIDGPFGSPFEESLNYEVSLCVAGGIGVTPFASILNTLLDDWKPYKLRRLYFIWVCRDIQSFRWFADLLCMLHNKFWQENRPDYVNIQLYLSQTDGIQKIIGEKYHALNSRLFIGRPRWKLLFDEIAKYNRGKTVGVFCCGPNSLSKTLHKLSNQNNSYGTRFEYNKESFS
T1 sequence (P13498 1-195 partner): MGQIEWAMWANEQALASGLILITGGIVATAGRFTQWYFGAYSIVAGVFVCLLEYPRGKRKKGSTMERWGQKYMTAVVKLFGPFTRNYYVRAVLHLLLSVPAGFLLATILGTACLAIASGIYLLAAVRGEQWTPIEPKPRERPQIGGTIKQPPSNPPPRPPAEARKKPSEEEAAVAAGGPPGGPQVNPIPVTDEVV
The assay can be described thus: Cell free membrane based in vitro NOX4 assay: H2O2 production by membranes expressing human NOX4, measured with Amplex Red. The format is biochemical. To be noted: for inhibition at 1 µM: 1.0 μM compound, read-out: Percentage inhibition at 1.0 μM; for inhibition at 10 µM: 10.0 μM compound, read-out: Percentage inhibition at 10.0 μM; for IC50: class symbols. The method, then: The inhibition of NOX4 activity was measured as inhibition of formation of reactive oxygen species (ROS) from oxygen in cell free assays. […] A cell free membrane based in vitro assay was developed by preparing membranes from cells stably overexpressing human NOX4. hNOX4/HEK stable cell line was generated in-house for this purpose. Membranes from stably transfected cells overexpressing human NOX4 were prepared by homogenizing the cells in buffer (20 mM HEPES, 1 mM EGTA, 0.5 mM DTT, 0.5% protease inhibitor cocktail, 1 mM PMSF, pH 7.6), followed by centrifugation at 160000 g for 30 min. Membrane fraction (pellet) was resuspended in storage buffer (homogenization buffer with 10% glycerol and 100 mM NaCl) and stored at −80° C. Protein concentration was determined by Bradford reagent. H202 production by membranes expressing human NOX4 was measured using Amplex Red (Invitrogen) by following a slightly modified version of the manufacturer's instruction manual. Briefly, membranes were incubated in assay buffer (25 mM HEPES, 0.12 M NaCl, 3 mM KCl, 1 mM MgCl2, pH 7.4) with Horse Radish Peroxidase (HRP) and Amplex Red. Reaction was started by addition of […] to the membrane mix. Antagonism of NOX4 inhibitors was measured by incubating the membrane with increasing concentrations of the inhibitors for 20 min on a plate shaker prior to addition of NADPH. H2O2 levels were measured for 10 min in a BMG Fluostar microplate reader with excitation and emission wavelengths of 544 nm and 590 nm respectively. Concentration response curves were plotted as a % of maximal response obtained in the absence of the inhibitor. IC50 value was calculated from concentration response curve by nonlinear regression analysis using GraphPad PRISM software.

As for `CCn1nc(C)c2c(=O)c(O)c(-c3c(F)cccc3F)[nH]c21` [Example 68, 6-(2,6-Difluorophenyl)-1-ethyl-5-hydroxy-3-methyl-1H-pyrazolo[3,4-b]pyridin-4(7H)-one], the inhibition at 1 µM was 84.3%, the inhibition at 10 µM was 80.3% and the IC50 is 50 to 100 nM.
The like results for `CCc1nn(CCC(C)C)c2[nH]c(-c3c(F)cccc3F)c(O)c(=O)c12` [Example 180, 6-(2,6-Difluorophenyl)-3-ethyl-5-hydroxy-1-isopentyl-1H-pyrazolo[3,4-b]pyridin-4(7H)-one] were, in that order, 100%, 100% and less than 50 nM.
The like results for `CCn1nc(C)c2c(=O)c(O)c(-c3c(F)cc(NS(C)(=O)=O)cc3F)[nH]c21` [Example 236, N-[4-(1-Ethyl-5-hydroxy-3-methyl-4-oxo-4,7-dihydro-1H-pyrazolo[3,4-b]pyridin-6-yl)-3,5-difluorophenyl]methanesulfonamide] were, in that order, 84.8%, 87.7% and 50 to 100 nM.
Turning to `CCn1nc2c(=O)c(O)c(-c3ccccc3Cl)oc2c1C` [Example 229, 5-(2-Chlorophenyl)-2-ethyl-6-hydroxy-3-methylpyrano[3,2-c]pyrazol-7(2H)-one], the inhibition at 1 µM stood at 4.45% and the inhibition at 10 µM was determined as 5.81%.
For `COc1ccc(-c2[nH]c3c(c(C)nn3C3CC3)c(=O)c2O)c(F)c1` [Example 114, 1-Cyclopropyl-6-(2-fluoro-4-methoxyphenyl)-5-hydroxy-3-methyl-1H-pyrazolo[3,4-b]pyridin-4(7H)-one], the inhibition at 1 µM was determined as 61%, the inhibition at 10 µM was 69.9% and the concentration for half-maximal inhibition (IC50) was more than 150 nM.
For the molecule `Cn1nc(C(F)F)c2c(=O)c(O)c(-c3ccccc3Cl)[nH]c21` [Example 85, 6-(2-Chlorophenyl)-3-(difluoromethyl)-5-hydroxy-1-methyl-1H-pyrazolo[3,4-b]pyridin-4(7H)-one], the inhibition at 1 µM was 72.5%, the inhibition at 10 µM is 88% and the IC50 is more than 150 nM.
Regarding `Cn1nc2[nH]c(-c3ccccc3Cl)c(O)c(=O)c2c1Cc1ccccc1F` [Example 57, 6-(2-Chlorophenyl)-3-(2-fluorobenzyl)-5-hydroxy-2-methyl-2,7-dihydro-4H-pyrazolo[3,4-b]pyridin-4-one], the inhibition at 1 µM worked out at 21.9% and the inhibition at 10 µM is 13.5%.
For the molecule `Cc1nn(C)c2[nH]c(-c3ccccc3Cl)c(O)c(=O)c12` [Example 1, 6-(2-Chlorophenyl)-5-hydroxy-1,3-dimethyl-1,7-dihydro-4H-pyrazolo[3,4-b]pyridin-4-one], the inhibition at 1 µM was found to be 94.1%, the inhibition at 10 µM turned out to be 89.7% and the half-maximal inhibitory concentration (IC50) is less than 50 nM.
The like results for `CC(C)N1CCN(Cc2nn(C)c3[nH]c(-c4c(F)cccc4F)c(O)c(=O)c23)C[C@H]1C` [Example 223, (R)-6-(2,6-Difluorophenyl)-5-hydroxy-3-((4-isopropyl-3-methylpiperazin-1-yl)methyl)-1-methyl-1H-pyrazolo[3,4-b]pyridin-4(7H)-one] were, in that order, 89.7%, 96.6% and 100 to 150 nM.
`Cn1nc(CN2CCN(CC(F)(F)F)CC2)c2c(=O)c(O)c(-c3c(F)cccc3F)[nH]c21` [Example 196, 3-((4-(2,2,2-trifluoroethyl)piperazin-1-yl)methyl)-6-(2,6-difluorophenyl)-5-hydroxy-1-methyl-1H-pyrazolo[3,4-b]pyridin-4(7H)-one]: the inhibition at 1 µM was found to be 100%, the inhibition at 10 µM turned out to be 100% and the IC50 is 100 to 150 nM.
Consider `Cn1nc(C(F)(F)F)c2c(=O)c(O)c(-c3ccccc3Cl)[nH]c21` [Example 40, 6-(2-Chlorophenyl)-5-hydroxy-1-methyl-3-(trifluoromethyl)-1,7-dihydro-4H-pyrazolo[3,4-b]pyridin-4-one], for which the inhibition at 1 µM came out at 93.3%, the inhibition at 10 µM is 100% and the IC50 was less than 50 nM.
Take `Cn1nc(CN2CCOCC2)c2c(=O)c(O)c(-c3c(F)cccc3F)[nH]c21` [Example 191, 6-(2,6-difluorophenyl)-5-hydroxy-1-methyl-3-(morpholinomethyl)-1H-pyrazolo[3,4-b]pyridin-4(7H)-one]: the inhibition at 1 µM amounted to 91.2%, the inhibition at 10 µM is 97.8% and the half-maximal inhibitory concentration (IC50) lay within 50 to 100 nM.
The matching figures for `Cc1nn(-c2cccc(F)c2)c2[nH]c(-c3ccccc3Cl)c(O)c(=O)c12` [Example 34, 6-(2-Chlorophenyl)-1-(3-fluorophenyl)-5-hydroxy-3-methyl-1,7-dihydro-4H-pyrazolo[3,4-b]pyridin-4-one]: 100%, 100% and less than 50 nM.
`CC(C)Cn1nc(C(F)(F)F)c2c(=O)c(O)c(-c3c(F)cccc3F)[nH]c21` [Example 111, 6-(2,6-Difluorophenyl)-5-hydroxy-1-isobutyl-3-(trifluoromethyl)-1H-pyrazolo[3,4-b]pyridin-4(7H)-one]: the inhibition at 1 µM was 56.4%, the inhibition at 10 µM was 81.7% and the concentration for half-maximal inhibition (IC50) is more than 150 nM.
The like results for `CS(=O)(=O)N1CCC(c2nn(C3CC3)c3[nH]c(-c4c(F)cccc4F)c(O)c(=O)c23)CC1` [Example 186, 1-Cyclopropyl-6-(2,6-difluorophenyl)-5-hydroxy-3-(1-(methylsulfonyl)piperidin-4-yl)-1H-pyrazolo[3,4-b]pyridin-4(7H)-one] were, in that order, 71.9%, 81.2% and more than 150 nM.
On to `Cc1ccc(-c2[nH]c3c(c(C)nn3C)c(=O)c2O)cc1C` [Example 15, 6-(3,4-Dimethylphenyl)-5-hydroxy-1,3-dimethyl-1,7-dihydro-4H-pyrazolo[3,4-b]pyridin-4-one], for which the inhibition at 1 µM worked out at 50.1%.
Take `Cc1nn(C2CCC2)c2[nH]c(-c3c(F)cccc3F)c(O)c(=O)c12` [Example 131, 1-Cyclobutyl-6-(2,6-difluorophenyl)-5-hydroxy-3-methyl-1H-pyrazolo[3,4-b]pyridin-4(7H)-one]: the inhibition at 1 µM worked out at 92.4%, the inhibition at 10 µM is 90.2% and the IC50 is less than 50 nM.
The matching figures for `Cn1ncc2c(=O)c(O)c(-c3ccc(F)c(C(F)(F)F)c3)[nH]c21` [Example 6, 6-[4-Fluoro-3-(trifluoromethyl)phenyl]-5-hydroxy-1-methyl-1,7-dihydro-4H-pyrazolo[3,4-b]pyridin-4-one]: 96.3%, 94.3% and 100 to 150 nM.
Take `Cn1nc(Cc2ccccc2)c2c(=O)c(O)c(-c3c(F)cccc3F)[nH]c21` [Example 115, 3-Benzyl-6-(2,6-difluorophenyl)-5-hydroxy-1-methyl-1H-pyrazolo[3,4-b]pyridin-4(7H)-one]: the inhibition at 1 µM came to 76.7%, the inhibition at 10 µM was determined as 80.8% and the IC50 was 100 to 150 nM.
With `Cn1nc(C(F)F)c2c(=O)c(O)c(-c3c(F)cccc3F)[nH]c21` [Example 86, 3-(Difluoromethyl)-6-(2,6-difluorophenyl)-5-hydroxy-1-methyl-1H-pyrazolo[3,4-b]pyridin-4(7H)-one], the inhibition at 1 µM is 74.5%, the inhibition at 10 µM came out at 89.8% and the IC50 is more than 150 nM.
